From the supplement of paper PMC10307832

Tests used:
Test in all cases: relative viability (nuclei count vs DMSO), 5 days (fraction); higher = more cells survive
Linsitinib + Navitoclax = compound: C[C@]1(O)C[C@@H](c2nc(-c3ccc4ccc(-c5ccccc5)nc4c3)c3c(N)nccn32)C1 [Linsitinib] + CC1(C)CCC(c2ccc(Cl)cc2)=C(CN2CCN(c3ccc(C(=O)NS(=O)(=O)c4ccc(N[C@H](CCN5CCOCC5)CSc5ccccc5)c(S(=O)(=O)C(F)(F)F)c4)cc3)CC2)C1 [Navitoclax] (partner 0.5 µM)
How it was run: (§1)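 Lung cancer cell lines in 1536-well plates got either a single drug or a fixed anchor-drug dose together with five library-drug doses (not always all listed) in √10 steps, by pin tool, on the day after seeding. Nuclei were counted after 5 days, and relative viability is the treated-to-vehicle ratio of nuclei counts. Values are medians of duplicate plates.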

Linsitinib + Decitabine = compound: C[C@]1(O)C[C@@H](c2nc(-c3ccc4ccc(-c5ccccc5)nc4c3)c3c(N)nccn32)C1 [Linsitinib] + Nc1ncn([C@H]2C[C@H](O)[C@@H](CO)O2)c(=O)n1 [Decitabine] (partner 2 µM)
How it was run: as §1

Ispinesib + Trametinib = compound: Cc1ccc(C(=O)N(CCCN)[C@@H](c2nc3cc(Cl)ccc3c(=O)n2Cc2ccccc2)C(C)C)cc1 [Ispinesib] + CC(=O)Nc1cccc(-n2c(=O)n(C3CC3)c(=O)c3c(Nc4ccc(I)cc4F)n(C)c(=O)c(C)c32)c1 [Trametinib] (partner 0.02 µM)
How it was run: as §1

Ispinesib + Decitabine = compound: Cc1ccc(C(=O)N(CCCN)[C@@H](c2nc3cc(Cl)ccc3c(=O)n2Cc2ccccc2)C(C)C)cc1 [Ispinesib] + Nc1ncn([C@H]2C[C@H](O)[C@@H](CO)O2)c(=O)n1 [Decitabine] (partner 2 µM)
How it was run: as §1

| Cell Line | relative viability (Linsitinib + Navitoclax; first compound 0.01 µM) | relative viability (Linsitinib + Navitoclax; first compound 0.03162 µM) | relative viability (Linsitinib + Navitoclax; first compound 0.1 µM) | relative viability (Linsitinib + Navitoclax; first compound 0.3162 µM) | relative viability (Linsitinib + Navitoclax; first compound 1 µM) | relative viability (Linsitinib + Decitabine; first compound 0.01 µM) | relative viability (Linsitinib + Decitabine; first compound 0.03162 µM) | relative viability (Linsitinib + Decitabine; first compound 0.1 µM) | relative viability (Linsitinib + Decitabine; first compound 1 µM) | relative viability (Ispinesib + Trametinib; first compound 0.001 µM) | relative viability (Ispinesib + Trametinib; first compound 0.003162 µM) | relative viability (Ispinesib + Trametinib; first compound 0.01 µM) | relative viability (Ispinesib + Trametinib; first compound 0.03162 µM) | relative viability (Ispinesib + Trametinib; first compound 0.1 µM) | relative viability (Ispinesib + Decitabine; first compound 0.001 µM) | relative viability (Ispinesib + Decitabine; first compound 0.003162 µM) | relative viability (Ispinesib + Decitabine; first compound 0.01 µM) | relative viability (Ispinesib + Decitabine; first compound 0.03162 µM) | relative viability (Ispinesib + Decitabine; first compound 0.1 µM) | relative viability (Linsitinib + Decitabine; first compound 0.3162 µM) |
| --- | --- | --- | --- | --- | --- | --- | --- | --- | --- | --- | --- | --- | --- | --- | --- | --- | --- | --- | --- | --- |
| HOP-62 | 1.08 | 1.12 | 1.13 | 0.636 | 0.823 | 0.194 | 0.241 | 0.194 | 0.201 | 0.349 | 0.373 | 0.406 | 0.441 | 0.42 | 0.22 | 0.191 | 0.226 | 0.224 | 0.23 |  |
| LC-2-ad | 0.368 | 0.406 | 0.486 | 0.339 | 0.368 | 0.776 | 0.719 | 0.864 | 0.742 | 0.934 | 0.944 | 0.92 | 0.9 | 0.474 | 0.847 | 0.787 | 0.872 | 0.815 | 0.54 | 0.726 |
| NCI-H522 |  |  |  |  |  | 0.657 | 0.773 | 0.614 | 0.587 | 0.814 | 0.879 | 0.913 | 0.788 | 0.646 | 0.662 | 0.649 | 0.751 | 0.687 | 0.673 | 0.688 |
| NCI-H322M | 1.3 | 1.4 | 1.25 | 1.23 | 1.27 | 0.68 | 0.818 | 0.719 | 0.674 | 0.529 | 0.586 | 0.449 | 0.514 | 0.467 | 0.744 | 0.771 | 0.697 | 0.666 | 0.559 | 0.757 |
| SK-LU-1 | 0.903 | 0.777 | 0.793 |  | 0.774 | 0.605 | 0.635 | 0.637 | 0.602 | 0.506 | 0.524 | 0.458 | 0.359 | 0.356 | 0.605 | 0.62 | 0.608 | 0.57 | 0.361 | 0.624 |
| NCI-H1734 | 0.77 | 0.865 | 0.925 | 0.821 | 0.784 | 0.512 | 0.502 | 0.463 | 0.487 | 0.685 | 0.622 | 0.684 | 0.684 | 0.429 | 0.538 | 0.528 | 0.591 | 0.54 | 0.391 | 0.516 |
| HCC-44 | 1.01 | 0.839 | 0.85 | 0.718 | 0.794 | 0.922 | 0.977 | 0.919 | 0.746 | 1.06 | 1.05 | 1.09 | 1.07 | 1.11 | 0.909 | 0.954 | 0.967 | 0.795 | 0.453 | 0.552 |
| NCI-H1703 | 0.894 |  | 1.43 | 0.924 | 0.932 |  |  |  |  |  |  |  |  |  |  |  |  |  |  |  |
| NCI-H2170 | 0.615 | 0.622 | 0.456 | 0.543 | 0.501 | 0.445 | 0.528 | 0.461 | 0.468 | 1.02 | 0.933 | 1.09 | 0.684 | 0.488 | 0.518 | 0.532 | 0.548 | 0.46 | 0.379 |  |
| NCI-H1395 | 1.14 | 0.904 | 1.47 | 1 | 1.15 | 0.691 |  | 0.777 | 0.702 | 1.13 | 1.1 | 1.06 | 0.682 | 0.409 | 0.734 | 0.746 | 0.577 | 0.467 | 0.412 | 0.695 |
| NCI-H1355 | 0.888 | 0.868 | 0.881 | 0.729 | 0.659 | 0.378 | 0.353 | 0.334 | 0.317 | 0.469 | 0.456 | 0.41 | 0.414 | 0.288 | 0.364 | 0.364 | 0.405 | 0.33 | 0.307 | 0.309 |
| NCI-H1650 | 1.33 | 1.36 | 1.29 | 0.743 | 1.1 | 0.571 | 0.449 | 0.415 | 0.361 | 0.726 | 0.581 | 0.556 | 0.417 | 0.315 | 0.527 | 0.448 | 0.45 | 0.331 | 0.185 | 0.325 |
| IA-LM | 0.882 | 0.785 | 0.775 | 0.6 | 0.531 |  |  |  |  |  |  |  |  |  |  |  |  |  |  |  |
| NCI-H1666 | 0.994 | 0.867 | 0.939 | 0.549 | 0.646 | 0.622 | 0.79 | 0.732 | 0.602 | 0.934 | 0.864 | 0.788 | 0.858 | 0.604 | 0.638 | 0.795 | 0.779 | 0.656 | 0.625 | 0.521 |
| HCC-78 | 0.882 | 0.889 | 0.711 | 0.789 | 0.661 |  | 0.818 | 0.649 | 0.682 | 1.04 | 0.869 | 1.2 | 0.493 | 0.513 | 0.68 | 0.732 | 0.825 | 0.577 | 0.578 | 0.588 |
| H3255 | 0.615 | 0.504 | 0.499 | 0.433 | 0.395 |  | 0.627 | 0.559 | 0.686 | 0.621 | 0.711 | 0.622 | 0.448 | 0.328 | 0.573 | 0.629 | 0.622 | 0.495 | 0.41 | 0.518 |
| NCI-H23 | 0.811 | 0.854 | 0.761 | 0.581 | 0.652 | 0.305 | 0.314 | 0.322 | 0.298 | 0.372 | 0.472 | 0.32 | 0.358 | 0.208 | 0.27 | 0.326 | 0.304 | 0.309 | 0.213 | 0.264 |
| NCI-H1944 | 1.02 | 1.1 | 1.04 | 0.93 | 0.917 | 0.426 | 0.53 | 0.422 | 0.341 | 0.431 | 0.408 | 0.36 | 0.383 | 0.334 | 0.416 | 0.412 | 0.467 | 0.417 | 0.443 | 0.398 |
